Common to all, as to test: relative viability (nuclei count vs DMSO), 5 days (fraction); higher = more cells survive
Compound in test [1]: C(C(=O)C(=O)O)Br [Bromopyruvate] + COc1cccc2cc(-c3nc([C@H]4CC[C@H](C(=O)O)CC4)n4ncnc(N)c34)[nH]c12 [OSI-027] (partner 0.5 µM)
In outline: (§1)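 Relative viability was taken as the ratio of nuclei in treated wells to nuclei in vehicle wells. Lung cancer cell lines in 1536-well plates received compounds by pin tool one day after seeding, either one drug alone or a fixed anchor-drug dose plus five library-drug doses (not always all listed) in √10 steps. Nuclei were counted on 4× images after 5 days of treatment, and values are medians of duplicate plates.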

Compound in test [2]: CC(O)(CS(=O)(=O)c1ccc(F)cc1)C(=O)Nc1ccc(C#N)c(C(F)(F)F)c1 [Bicalutamide] + CCNC(=O)c1noc(-c2cc(C(C)C)c(O)cc2O)c1-c1ccc(CN2CCOCC2)cc1 [Luminespib] (partner 0.01 µM)
In outline:
as §1

Compound in test [3]: CC(O)(CS(=O)(=O)c1ccc(F)cc1)C(=O)Nc1ccc(C#N)c(C(F)(F)F)c1 [Bicalutamide] + CS(=O)(=O)CCNCc1ccc(-c2ccc3ncnc(Nc4ccc(OCc5cccc(F)c5)c(Cl)c4)c3c2)o1 [Lapatinib] (partner 2 µM)
In outline: as §1

Compound in test [4]: CC(O)(CS(=O)(=O)c1ccc(F)cc1)C(=O)Nc1ccc(C#N)c(C(F)(F)F)c1 [Bicalutamide] + NC(=O)Nc1cc(-c2cccc(F)c2)sc1C(=O)N[C@H]1CCCNC1 [AZD7762] (partner 0.2 µM)
The procedure, abridged: as §1

As to NCI-H2126, the relative viability in test [1] (first compound 1 µM) came out at 0.756; in test [1] (first compound 3.162 µM), 0.707; in test [1] (first compound 10 µM), 0.65; in test [1] (first compound 31.62 µM), 0.668; in test [1] (first compound 100 µM), 0.824; in test [2] (first compound 0.08 µM), 0.923. Also, the relative viability is 0.904 in test [2] (first compound 0.253 µM); 1.16 in test [2] (first compound 0.8 µM); 0.915 in test [2] (first compound 2.53 µM); 0.686 in test [3] (first compound 0.08 µM); 0.697 in test [3] (first compound 0.253 µM); 0.74 in test [3] (first compound 0.8 µM). In addition, the relative viability is 0.753 in test [3] (first compound 2.53 µM); 0.994 in test [4] (first compound 0.08 µM); 0.918 in test [4] (first compound 0.253 µM); 1.01 in test [4] (first compound 0.8 µM); 0.856 in test [4] (first compound 2.53 µM).

NCI-H2170: the relative viability was 0.469 in test [1] (first compound 1 µM); 0.686 in test [1] (first compound 3.162 µM); 0.769 in test [1] (first compound 10 µM); 0.761 in test [1] (first compound 31.62 µM); 0.743 in test [1] (first compound 100 µM); 0.689 in test [2] (first compound 0.08 µM). Moreover, the relative viability in test [2] (first compound 0.253 µM) was 0.527; in test [2] (first compound 0.8 µM), 0.588; in test [2] (first compound 2.53 µM), 0.591; in test [3] (first compound 0.08 µM), 0.286; in test [3] (first compound 0.253 µM), 0.271; in test [3] (first compound 0.8 µM) it was 0.268. Also, the relative viability stood at 0.24 in test [3] (first compound 2.53 µM); 0.805 in test [4] (first compound 0.08 µM); 0.817 in test [4] (first compound 0.253 µM); 1.26 in test [4] (first compound 0.8 µM); 0.902 in test [4] (first compound 2.53 µM).

NCI-H2347: the relative viability in test [1] (first compound 1 µM) is 0.453; in test [1] (first compound 3.162 µM) it was 0.401; in test [1] (first compound 10 µM) it was 0.379; in test [1] (first compound 31.62 µM), 0.357; in test [1] (first compound 100 µM), 0.375; in test [2] (first compound 0.08 µM), 0.357. The relative viability in test [2] (first compound 0.253 µM) amounted to 0.399; in test [2] (first compound 0.8 µM), 0.263; in test [2] (first compound 2.53 µM) it was 0.673; in test [3] (first compound 0.08 µM), 1.11; in test [3] (first compound 0.253 µM), 0.935; in test [3] (first compound 0.8 µM), 0.989. The relative viability in test [3] (first compound 2.53 µM) was determined as 0.784; in test [4] (first compound 0.08 µM), 0.797; in test [4] (first compound 0.253 µM), 0.753; in test [4] (first compound 0.8 µM) it was 0.753; in test [4] (first compound 2.53 µM), 0.73.

On to NCI-H2405, for which the relative viability was determined as 0.585 in test [1] (first compound 1 µM); 0.659 in test [1] (first compound 3.162 µM); 0.634 in test [1] (first compound 10 µM); 0.556 in test [1] (first compound 31.62 µM); 0.663 in test [1] (first compound 100 µM); 0.669 in test [2] (first compound 0.08 µM). Further, the relative viability was found to be 0.661 in test [2] (first compound 0.253 µM); 0.826 in test [2] (first compound 0.8 µM); 0.627 in test [2] (first compound 2.53 µM); 1.2 in test [3] (first compound 0.08 µM); 1.01 in test [3] (first compound 0.253 µM); 1.16 in test [3] (first compound 0.8 µM). For the same cell line, the relative viability in test [3] (first compound 2.53 µM) is 0.852; in test [4] (first compound 0.08 µM), 0.739; in test [4] (first compound 0.253 µM), 0.713; in test [4] (first compound 0.8 µM), 0.88; in test [4] (first compound 2.53 µM) it was 0.694.

For NCI-H3122, the relative viability worked out at 0.914 in test [1] (first compound 1 µM); 1.13 in test [1] (first compound 3.162 µM); 1.27 in test [1] (first compound 10 µM); 0.964 in test [1] (first compound 31.62 µM); 1.06 in test [1] (first compound 100 µM); 0.0979 in test [2] (first compound 0.08 µM). The relative viability in test [2] (first compound 0.253 µM) was found to be 0.0782; in test [2] (first compound 0.8 µM), 0.126; in test [2] (first compound 2.53 µM), 0.106; in test [3] (first compound 0.08 µM) it was 0.983; in test [3] (first compound 0.253 µM), 0.962; in test [3] (first compound 0.8 µM) it was 1.04. Further, the relative viability in test [3] (first compound 2.53 µM) was determined as 1.04; in test [4] (first compound 0.08 µM), 0.98; in test [4] (first compound 0.253 µM) it was 1; in test [4] (first compound 0.8 µM), 1.05; in test [4] (first compound 2.53 µM), 1.01.

On to PC-3 [JPC-3], for which the relative viability in test [1] (first compound 1 µM) amounted to 0.814; in test [1] (first compound 3.162 µM) it was 0.77; in test [1] (first compound 10 µM) it was 0.709; in test [1] (first compound 31.62 µM) it was 0.783; in test [1] (first compound 100 µM) it was 0.735; in test [2] (first compound 0.08 µM) it was 0.665. For the same cell line, the relative viability in test [2] (first compound 0.253 µM) is 0.659; in test [2] (first compound 0.8 µM), 0.667; in test [2] (first compound 2.53 µM) it was 0.734; in test [3] (first compound 0.08 µM), 0.476; in test [3] (first compound 0.253 µM), 0.421; in test [3] (first compound 0.8 µM), 0.456. For the same cell line, the relative viability was found to be 0.476 in test [3] (first compound 2.53 µM); 0.86 in test [4] (first compound 0.08 µM); 0.815 in test [4] (first compound 0.253 µM); 0.912 in test [4] (first compound 0.8 µM); 0.874 in test [4] (first compound 2.53 µM).

As to PC-14, the relative viability in test [1] (first compound 1 µM) was found to be 0.788; in test [1] (first compound 3.162 µM) it was 0.837; in test [1] (first compound 10 µM) it was 1.37; in test [1] (first compound 31.62 µM), 0.825; in test [1] (first compound 100 µM), 0.841; in test [2] (first compound 0.08 µM), 0.16. Also, the relative viability in test [2] (first compound 0.253 µM) came out at 0.148; in test [2] (first compound 0.8 µM), 0.198; in test [2] (first compound 2.53 µM), 0.137; in test [3] (first compound 0.08 µM), 0.301; in test [3] (first compound 0.253 µM), 0.295; in test [3] (first compound 0.8 µM), 0.452. The relative viability came out at 0.297 in test [3] (first compound 2.53 µM); 0.314 in test [4] (first compound 0.08 µM); 0.329 in test [4] (first compound 0.253 µM); 0.443 in test [4] (first compound 0.8 µM); 0.353 in test [4] (first compound 2.53 µM).

On to RERF-LC-KJ, for which the relative viability was 0.614 in test [1] (first compound 1 µM); 0.607 in test [1] (first compound 3.162 µM); 0.6 in test [1] (first compound 10 µM); 0.516 in test [1] (first compound 31.62 µM); 0.54 in test [1] (first compound 100 µM); 1.24 in test [2] (first compound 0.08 µM). Moreover, the relative viability stood at 1.2 in test [2] (first compound 0.253 µM); 1.36 in test [2] (first compound 0.8 µM); 1.2 in test [2] (first compound 2.53 µM); 0.904 in test [3] (first compound 0.08 µM); 0.862 in test [3] (first compound 0.253 µM); 1.07 in test [3] (first compound 0.8 µM). Further, the relative viability in test [3] (first compound 2.53 µM) turned out to be 0.705; in test [4] (first compound 0.08 µM) it was 0.982; in test [4] (first compound 0.253 µM) it was 0.847; in test [4] (first compound 0.8 µM), 1.47; in test [4] (first compound 2.53 µM) it was 0.867.

These data come from the supplement of paper PMC10307832.
